{"source": "patent US20200079906A1", "about": "“PHOTODYNAMIC THERAPY COMPLEX” (University College Cardiff Consultants Limited, priority 2015, published 2020)", "assay_in_all_cases": "Antimicrobial photodynamic protocol, viable cell count after laser exposure", "assay_type_in_all_cases": "cell-based", "key": {"[1]": {"test_system": "Methicillin Resistant Staphylococcus aureus (NCTC12493)", "conditions": "for Antimicrobial activity (Log10 reduction of viable cells): green laser, 5 sec, MRSA NCTC12493", "procedure": "(§1) The organisms used in this study were Escherichia coli (NCTC10418) and Staphylococcus epidermidis (ATCC12228), Pseudomonas aeruginosa (NCIMB10548), Methicillin Resistant Staphylococcus aureus (NCTC12493), Streptococcus pyogenes (ATCC19615) and Acinetobacter baumannii (NCIMB9214); they were stored at −80° C. These organisms were subcultured, when needed, on Brain Heart Infusion (BHI) Agar overnight aerobically at 37° C. The plates were then stored at 4° C. for no more than two weeks. Bacterial suspensions used for the experiments were grown in Brain Heart Infusion (BHI) broth after inoculation with a loopful of cells from a single colony on a BHI plate and incubated aerobically for 24 h at 37° C. statically. These overnight cultures were then diluted 1 in 100 in PBS. The resulting bacterial suspension contained approximately 10^6 CFU/mL. Each cell suspension was used to disperse pure PS, e.g. PBAE-TBO, to concentrations of 0.2 mg/mL or PBAEs-PS derivatives to an equivalent PS concentration.\n(§2) 200 μL aliquots of the resulting suspension were immediately poured in a GREINER 96 U-BOTTOM well plate. The well plate was then irradiated with a laser light (633 nm) using a 500 mW red laser (RRL-635 nm-500 mW-1080060, Changchun New Industries Optoelectronics, China) or a 500 mW green laser (MGL-FN-532 nm-500 mW-15097031, Changchun New Industries Optoelectronics, China) for different time periods (between 5 sec to 3 min). The red laser was employed for TBO while the green laser was used for RB and ERY.\n(§3) After exposure the bacterial cells (L+S+) were counted through serial dilutions and then plating on BHI Agar. Along this test, different experiments were performed including the testing of dark toxicity (labelled with L−S+), samples exposed uniquely to laser light (L+S−) or samples not expose to either laser light and PBAE (L−S−).\n(§4) Through the experiment prepared samples, well plates and inoculated plates were immediately covered with aluminium foil to reduce biased measuring results due to exposure of any light besides the laser. All plates were incubated after the experiment for 24 hours at 37° C. All experiments were performed on three independent cultures."}, "[2]": {"test_system": "Escherichia coli (NCTC10418)", "conditions": "E. coli; for Antimicrobial activity (Log10 reduction of viable cells): green laser, 3 min laser exposure", "procedure": "as §1, §2, §3, §4"}, "[3]": {"test_system": "Staphylococcus epidermidis (ATCC12228)", "conditions": "TBO series", "procedure": "as §1, §2, §3, §4"}, "[4]": {"test_system": "Pseudomonas aeruginosa (NCIMB10548)", "conditions": "TBO series, P. aeruginosa", "procedure": "as §1, §2, §3, §4"}, "[5]": {"test_system": "Streptococcus pyogenes (ATCC19615)", "conditions": "TBO series", "procedure": "as §1, §2, §3, §4"}, "[6]": {"test_system": "Acinetobacter baumannii (NCIMB9214)", "conditions": "TBO series, A. baumannii", "procedure": "as §1, §2, §3, §4"}, "[7]": {"conditions": "L+S+, red laser, 0.2 mg/mL TBO equivalent"}}, "note": "“Also recorded” adds a separate entry of the source.", "data": [{"smiles": "O=C1OC2(c3ccccc31)c1cc(I)c(O)c(I)c1Oc1c2cc(I)c(O)c1I", "note": "[ERY, Erythrosin B]", "values": [{"measurement": "Antimicrobial activity (Log10 reduction of viable cells)", "setting": "[1]; ERY series", "value": "exhibit antimicrobial activity; also recorded: not as effective as RB"}, {"measurement": "Antimicrobial activity (Log10 reduction of viable cells)", "setting": "[2]; ERY series", "value": "exhibit antimicrobial activity; also recorded: not as effective as RB"}]}, {"smiles": "O=C([O-])c1c(Cl)c(Cl)c(Cl)c(Cl)c1-c1c2cc(I)c(=O)c(I)c-2oc2c(I)c([O-])c(I)cc12.[Na+].[Na+]", "note": "[RB, Rose Bengal]", "values": [{"measurement": "Antimicrobial activity (Log10 reduction of viable cells)", "setting": "[1]; RB series", "value": "exhibit antimicrobial activity"}, {"measurement": "Antimicrobial activity (Log10 reduction of viable cells)", "setting": "[2]; RB series", "value": "exhibit antimicrobial activity"}]}, {"smiles": "Cc1cc2nc3ccc(=[N+](C)C)cc-3sc2cc1N.[Cl-]", "note": "[TBO, Toluidine Blue O]", "values": [{"measurement": "Antimicrobial effect of laser exposure (reduction of viable cells)", "setting": "[3]; [7]", "value": "tendencies of progressive reduction"}, {"measurement": "Cell reduction without irradiation (dark toxicity)", "setting": "[3]; L-S+", "value": "did not return any cell reduction"}, {"measurement": "Antimicrobial effect of laser exposure (reduction of viable cells)", "setting": "[4]; [7]", "value": "tendencies of progressive reduction"}, {"measurement": "Cell reduction without irradiation (dark toxicity)", "setting": "[4]; L-S+", "value": "did not return any cell reduction"}, {"measurement": "Antimicrobial effect of laser exposure (reduction of viable cells)", "setting": "[5]; [7]", "value": "tendencies of progressive reduction"}, {"measurement": "Cell reduction without irradiation (dark toxicity)", "setting": "[5]; L-S+", "value": "did not return any cell reduction"}, {"measurement": "Antimicrobial effect of laser exposure (reduction of viable cells)", "setting": "[1]; TBO series, L+S+, red laser, 0.2 mg/mL TBO equivalent, MRSA", "value": "tendencies of progressive reduction"}, {"measurement": "Cell reduction without irradiation (dark toxicity)", "setting": "[1]; TBO series, L-S+, MRSA", "value": "did not return any cell reduction"}, {"measurement": "Antimicrobial effect of laser exposure (reduction of viable cells)", "setting": "[6]; [7]", "value": "tendencies of progressive reduction"}, {"measurement": "Cell reduction without irradiation (dark toxicity)", "setting": "[6]; L-S+", "value": "did not return any cell reduction"}, {"measurement": "Antimicrobial effect of laser exposure (reduction of viable cells)", "setting": "[2]; TBO series, L+S+, red laser, 0.2 mg/mL TBO equivalent", "value": "tendencies of progressive reduction"}, {"measurement": "Cell reduction without irradiation (dark toxicity)", "setting": "[2]; TBO series, L-S+", "value": "did not return any cell reduction"}]}]}
